Test results: paper PMC4932617 (Meta Gene, 2016)

Columns and labels:
[1] = tested on: intra-gastric pH; assay: Intra-gastric pH monitoring; type: in vivo, human; conditions: for pH on Day 6: n=1; for Difference in intra-gastric pH between baseline and day 6: rapid and ultra-rapid metabolizers (CYP2C19*17 carriers)
[2] = higher in poor than in extensive metabolizers; ref Klotz, 2006; cited from earlier work

## COc1ccc2nc([S@@+]([O-])Cc3ncc(C)c(OC)c3C)[nH]c2c1 [Esomeprazole]
[1]; normal metabolizer, esomeprazole 40 mg/day for 5 days, baseline pH 0.40
  pH on Day 6: 3.40
[1]; 40 mg/day for 5 days
  Difference in intra-gastric pH between baseline and day 6: noteworthy differences could not be observed
[1]; rapid metabolizer, esomeprazole 40 mg/day for 5 days, baseline pH 1.25
  pH on Day 6: 1.20

## Cc1c(OCC(F)(F)F)ccnc1C[S+]([O-])c1nc2ccccc2[nH]1 (stereo not drawn) [lansoprazole]
[2]
  AUC in poor metabolizers relative to extensive metabolizers: 4.5 fold

## COCCCOc1ccnc(C[S+]([O-])c2nc3ccccc3[nH]2)c1C (stereo not drawn) [rabeprazole]
[2]
  AUC in poor metabolizers relative to extensive metabolizers: 4 fold

## COc1ccnc(C[S+]([O-])c2nc3ccc(OC(F)F)cc3[nH]2)c1OC (stereo not drawn) [Pantoprazole]
[1]; normal metabolizer, pantoprazole 40 mg/day for 5 days, baseline pH 1.50
  pH on Day 6: 4.10
[1]; poor and intermediate metabolizers, 40 mg/day for 5 days
  Gastric acid suppression compared to esomeprazole: improved gastric acid suppression
[1]; 40 mg/day for 5 days
  Difference in intra-gastric pH between baseline and day 6: noteworthy differences could not be observed

## COc1ccc2[nH]c([S+]([O-])Cc3ncc(C)c(OC)c3C)nc2c1 (stereo not drawn) [omeprazole]
[2]
  AUC in poor metabolizers relative to extensive metabolizers: 7.5 fold
